# Where a SMILES comes first, the peptide text is derived from it. Bridges are numbered along the chain shown (N, C = ends). [ ]: non-standard residue; d: D form. The star is where a group is joined. Ileψ(thiazoline)Cys = CC[C@H](C)[C@H](N)C1=N[C@H](C(=O)*)CS1; dOrn = NCCC[C@@H](N)C(=O)O
# Tests used:
# [1] = test system: Micrococcus luteus ATCC 9341; test: Thermostability, residual antimicrobial activity; assay type: physicochemical; details: residual antimicrobial activity vs Micrococcus luteus ATCC 9341, mean ± SD, n = 3
# Protocol: (§1) After heat treatment (30–121°C, 10–60 min), the samples were tested for residual antimicrobial activity against indicator strain Micrococcus luteus ATCC 9341. Effects of pH on antimicrobial activity were estimated by varying the pH levels. Samples were diluted in the following buffers: citrate with Na2HPO4 (pH 3.0–7.0), Tris-HCl (pH 7.0–9.0), and NaHCO3 with NaOH (pH 10.0–11.0). After incubation for 1 h at room temperature, pH in the samples was adjusted to 7.0, and the samples were tested for antimicrobial activity against the indicator strain. The AMP was digested with various proteolytic enzymes at a final concentration of 1 mg/mL: […] (50 mM Tris-HCl, pH 7.5), protease K (50 mM Tris-HCl, pH 7.5), α-chymotrypsin (50 mM Tris-HCl, pH 7.5), or trypsin (50 mM Tris-HCl, pH 8.0). After 1-h incubation at room temperature, the enzymes were boiled for 2 min for inactivation.
# [2] = test system: Micrococcus luteus ATCC 9341; test: pH stability, residual antimicrobial activity; assay type: physicochemical; details: 1 h at room temperature, residual antimicrobial activity vs indicator strain, n = 3
# Protocol: as §1
# [3] = test system: COX-2; test: Western blot of protein expression in LPS-stimulated RAW 264.7 cells; assay type: cell-based, mouse; details: 10, 50, or 100 μg/mL, LPS 1 μg/mL, 24 h
# Protocol: (§2) Macrophages were incubated with or without LPS in the presence or absence of the AMPs. Cells were harvested, washed twice with ice-cold Tris-HCl-buffered saline (TBS), and resuspended in lysis buffer [100 mM Tris-HCl, 5 mM EDTA, 50 mM NaCl, 50 mM β- glycerophosphate, 50 mM NaF (sodium fluoride), 0.5% NP-40, 1% sodium deoxycholate, 0.1 mM sodium orthovanadate, and 1% phenylmethylsulfonyl fluoride (PMSF)]. The cytosolic fraction was obtained from the supernatant after […] centrifugation at 4°C for 20 min. Samples (20 μg in terms of protein) were separated by sodium dodecyl sulfate-polyacrylamide gel electrophoresis (SDS-PAGE) in a 10% gel and transferred to polyvinylidene difluoride (PVDF) membranes. The membranes were blocked with 5% nonfat milk in TBS with Tween 20 (0.1%) for 2 h and then incubated with primary antibodies specific for ERK, phospho-ERK, JNK, phospho-JNK, p38 MAPK, phospho-p38 MAPK (all them from Cell Signaling Technology), NF-κB, IκB, and phospho-IκB (1:1000; Santa Cruz Biotechnology). […] After three washes with TBS–Tween 20, the membrane was hybridized with an HRP-conjugated secondary antibody for 1 h. […] The immunoreactive proteins were detected by means of a LAS-3000 Luminescent image analyzer (Fuji Photo Film Co., Ltd., Tokyo, Japan).
# [4] = test system: iNOS; test: as above; assay type: cell-based, mouse; details: 10, 50, or 100 μg/mL, LPS 1 μg/mL, 24 h
# Protocol: as §2
# [5] = test system: COX-2 mRNA; test: RT-PCR of mRNA expression in LPS-stimulated RAW 264.7 cells; assay type: cell-based, mouse; details: 10, 50, or 100 μg/mL, LPS 2–12 h, GAPDH control
# Protocol: (§3) Total RNA from the AMP-treated cells was prepared using the RNAiso Reagent (Takara) and was stored at −80°C until use. For the detection of iNOS, COX-2, TNF-α, IL-Iβ, and IL-6, total RNA was extracted after stimulation and treatment. The mRNA expression levels of iNOS, COX-2, TNF-α, IL-Iβ, and IL-6 in the treated cells were compared to the expression levels in control cells. One microgram of RNA was reverse-transcribed into cDNA and used as a template for PCR amplification. PCR was performed on a DNA Gene Cycler, under the following conditions: 40 cycles of denaturation at 94°C for 30 s, annealing at 58°C for 30 s, and primer extension at 72°C for 40 s. PCR products were analyzed on 1% agarose gels, and bands were visualized by ethidium bromide staining.
# [6] = test system: IL-1β mRNA; test: as above; assay type: cell-based, mouse; details: 10, 50, or 100 μg/mL, LPS 2–12 h, GAPDH control
# Protocol: as §3
# [7] = test system: IL-6 mRNA; test: as above; assay type: cell-based, mouse; details: 10, 50, or 100 μg/mL, LPS 2–12 h, GAPDH control
# Protocol: as §3
# [8] = test system: TNF-α mRNA; test: as above; assay type: cell-based, mouse; details: 10, 50, or 100 μg/mL, LPS 2–12 h, GAPDH control
# Protocol: as §3
# [9] = test system: iNOS mRNA; test: as above; assay type: cell-based, mouse; details: 10, 50, or 100 μg/mL, LPS 2–12 h, GAPDH control
# Protocol: as §3
# [10] = test system: IL-1β; test: ELISA of cytokine production in LPS-stimulated RAW 264.7 cells; assay type: cell-based, mouse; details: 10–100 μg/mL before LPS 1 μg/mL for 24 h; ELISA of supernatant
# Protocol: (§4) The concentration of nitrite in the supernatant was calculated using a sodium nitrite standard curve. The supernatant was analyzed for TNF-α, IL-1β, and IL-6 by ELISAs using commercial kits (BD Biosciences) according to the manufacturer’s instructions.
# [11] = test system: IL-6; test: as above; assay type: cell-based, mouse; details: 10–100 μg/mL before LPS 1 μg/mL for 24 h; ELISA of supernatant
# Protocol: as §4
# [12] = test system: TNF-α; test: as above; assay type: cell-based, mouse; details: 10–100 μg/mL before LPS 1 μg/mL for 24 h; ELISA of supernatant
# Protocol: as §4
# [13] = test system: ERK; test: Western blot of LPS-induced MAPK phosphorylation in RAW 264.7 cells; assay type: cell-based, mouse; details: 10–100 μg/mL, LPS 1 μg/mL
# Protocol: (§5) Macrophages were incubated with or without LPS in the presence or absence of the AMPs. Cells were harvested, washed twice with ice-cold Tris-HCl-buffered saline (TBS), and resuspended in lysis buffer [100 mM Tris-HCl, 5 mM EDTA, 50 mM NaCl, 50 mM β- glycerophosphate, 50 mM NaF (sodium fluoride), 0.5% NP-40, 1% sodium deoxycholate, 0.1 mM sodium orthovanadate, and 1% phenylmethylsulfonyl fluoride (PMSF)]. The cytosolic fraction was obtained from the supernatant after […] centrifugation at 4°C for 20 min. Samples (20 μg in terms of protein) were separated by sodium dodecyl sulfate-polyacrylamide gel electrophoresis (SDS-PAGE) in a 10% gel and transferred to polyvinylidene difluoride (PVDF) membranes. The membranes were blocked with 5% nonfat milk in TBS with Tween 20 (0.1%) for 2 h and then incubated with primary antibodies specific for ERK, phospho-ERK, JNK, phospho-JNK, p38 MAPK, phospho-p38 MAPK (all them from Cell Signaling Technology), NF-κB, IκB, and phospho-IκB (1:1000; Santa Cruz Biotechnology). […] After three washes with TBS–Tween 20, the membrane was hybridized with an HRP-conjugated secondary antibody for 1 h. The membranes were washed three times for 10 min and developed with the ECL Western Blotting Detection System (GE Healthcare, Incheon, Republic of Korea,). The immunoreactive proteins were detected by means of a LAS-3000 Luminescent image analyzer (Fuji Photo Film Co., Ltd., Tokyo, Japan).
# [14] = test system: JNK; test: as above; assay type: cell-based, mouse; details: 10–100 μg/mL, LPS 1 μg/mL
# Protocol: as §5
# [15] = test system: p38 MAPK; test: as above; assay type: cell-based, mouse; details: 10–100 μg/mL, LPS 1 μg/mL
# Protocol: as §5
# [16] = test system: NF-κB (p65); test: Western blot of NF-κB translocation into the nucleus in LPS-stimulated RAW 264.7 cells; assay type: cell-based, mouse; details: CSP32 1 h prior to LPS 1 μg/mL
# Protocol: as §2
# [17] = test system: IκBα; test: Western blot of IκBα phosphorylation in LPS-stimulated RAW 264.7 cells; assay type: cell-based, mouse; details: CSP32 1 h prior to LPS 1 μg/mL
# Protocol: as §2
structure (smiles),measurement,setting,value
CC[C@H](C)[C@H](N)C1=N[C@H](C(=O)N[C@@H](CC(C)C)C(=O)N[C@H](CCC(=O)O)C(=O)N[C@H](C(=O)N[C@H]2CCCCNC(=O)[C@H](CC(N)=O)NC(=O)[C@@H](CC(=O)O)NC(=O)[C@H](Cc3c[nH]cn3)NC(=O)[C@@H](Cc3ccccc3)NC(=O)[C@H]([C@@H](C)CC)NC(=O)[C@@H](CCCN)NC2=O)[C@@H](C)CC)CS1 [CSP32] ({Ileψ(thiazoline)Cys}-L[dE]IK[dOrn]I[dF]H[dD]N; lactam 4-C; N-terminus assumed),Residual activity (%),"[1]; heat treatment 30°C, 10 min",100%
same,Residual activity (%),"[1]; heat treatment 30°C, 30 min, SD",100±0.28%
same,Residual activity (%),"[1]; heat treatment 30°C, 60 min, SD",100±0.34%
same,Residual activity (%),"[1]; heat treatment 50°C, 10 min, SD",100±0.94%
same,Residual activity (%),"[1]; heat treatment 50°C, 30 min, SD",98.40±0.39%
same,Residual activity (%),"[1]; heat treatment 50°C, 60 min, SD",98.07±0.36%
same,Residual activity (%),"[1]; heat treatment 70°C, 10 min, SD",98.07±0.41%
same,Residual activity (%),"[1]; heat treatment 70°C, 30 min, SD",98.00±0.41%
same,Residual activity (%),"[1]; heat treatment 70°C, 60 min, SD",98.07±0.39%
same,Residual activity (%),"[1]; heat treatment 90°C, 10 min, SD",97.73±1.04%
same,Residual activity (%),"[1]; heat treatment 121°C, 15 min, SD",65.40±0.17%
same,Residual activity (%),"[2]; pH 2, then adjusted to pH 7.0, mean ± SD, SD",61.33±1.04%
same,Residual activity (%),"[2]; pH 3, citrate with Na2HPO4, then adjusted to pH 7.0, mean ± SD, SD",63.00±1.04%
same,Residual activity (%),"[2]; pH 4, citrate with Na2HPO4, then adjusted to pH 7.0, mean ± SD, SD",89.60±3.44%
same,Residual activity (%),"[2]; pH 6, citrate with Na2HPO4, then adjusted to pH 7.0, mean ± SD, SD",100±0.50%
same,Residual activity (%),[2]; pH 7,100%
same,Residual activity (%),"[2]; pH 8, Tris-HCl, then adjusted to pH 7.0, mean ± SD, SD",100±0.20%
same,Residual activity (%),"[2]; pH 9, Tris-HCl, then adjusted to pH 7.0, mean ± SD, SD",100±1.15%
same,Residual activity (%),"[2]; pH 10, NaHCO3 with NaOH, then adjusted to pH 7.0, mean ± SD, SD",98±3.38%
same,Residual activity (%),"[2]; pH 11, NaHCO3 with NaOH, then adjusted to pH 7.0, mean ± SD, SD",91.33±0.06%
same,Residual activity (%),"[2]; pH 12, then adjusted to pH 7.0, mean ± SD, SD",91.77±0.06%
same,Effect on LPS-induced COX-2 protein expression,[3],significantly attenuated this induction in a dose-dependent manner
same,Effect on LPS-induced iNOS protein expression,[4],significantly attenuated this induction in a dose-dependent manner
same,Effect on LPS-induced COX-2 mRNA expression,[5],significantly attenuated iNOS and COX-2 mRNA upregulation in a dose-dependent manner
same,Effect on LPS-induced IL-1β mRNA expression,[6],dose-dependently attenuated the LPS-enhanced expression
same,Effect on LPS-induced IL-6 mRNA expression,[7],dose-dependently attenuated the LPS-enhanced expression
same,Effect on LPS-induced TNF-α mRNA expression,[8],dose-dependently attenuated the LPS-enhanced expression
same,Effect on LPS-induced iNOS mRNA expression,[9],significantly attenuated iNOS and COX-2 mRNA upregulation in a dose-dependent manner
same,Effect on LPS-induced IL-1β release,[10],significantly attenuated
same,Effect on LPS-induced IL-6 release,[11],significantly attenuated
same,Effect on LPS-induced TNF-α release,[12],significantly attenuated
same,Effect on LPS-induced phosphorylation of ERK,[13],Phosphorylation decreased in a dose-dependent manner
same,Effect on LPS-induced phosphorylation of JNK,[14],Phosphorylation decreased in a dose-dependent manner
same,Effect on LPS-induced phosphorylation of p38 MAPK,[15],Phosphorylation decreased in a dose-dependent manner
same,Effect on LPS-induced changes in the levels of p65 in the nucleus and cytoplasm,[16],attenuated
same,Effect on LPS-increased level of p-IκBα,[17],attenuated by CSP32 treatment (dose dependently)

# From article PMC5426640, “A novel multifunctional peptide oligomer of bacitracin with possible bioindustrial and therapeutic applications from a Korean food-source Bacillus strain” (PLoS ONE, 2017)
